Results as given in ChEMBL document CHEMBL4184095, “Identification of novel small-molecule inhibitors of Zika virus infection” (Bioorg Med Chem Lett, 2018).

Key:
[1] = Cytotoxicity against human A549 cells assessed as cell viability at 1 uM by MTT assay relative to control; assay type: cell-based; conditions: read-out: Activity
[2] = Cytotoxicity against human A549 cells assessed as cell viability at 100 uM by MTT assay relative to control; assay type: cell-based; conditions: read-out: Activity
[3] = system: Zika virus; assay: Antiviral activity against Zika virus infected in human A549 cells preincubated for 5 hrs followed by compound wash measured after 48 hrs by viral plague-forming assay; assay type: functional, organism-based
[4] = Cytotoxicity against human A549 cells assessed as cell viability at 0.1 uM by MTT assay relative to control; assay type: cell-based; conditions: read-out: Activity
[5] = Cytotoxicity against human A549 cells assessed as cell viability at 10 uM by MTT assay relative to control; assay type: cell-based; conditions: read-out: Activity
[6] = system: Zika virus; assay: Antiviral activity against Zika virus infected in human A549 cells assessed as virus titer preincubated for 5 hrs followed by compound wash measured after 48 hrs by viral plague-forming assay; assay type: functional

With `COc1ccc(CCCn2ncc3c2nc(N)n2nc(-c4ccco4)nc32)cc1` as the molecule, how does the viability at 1 µM [1] read?
Its viability at 1 µM is 106%.

What about the viability at 100 µM [2] of the same molecule?
The viability at 100 µM was 41.6%.

And the IC50 [3]?
Its IC50 is 3.06 µM.

And the viability at 0.1 µM [4]?
Its viability at 0.1 µM is 94.7%.

What about the viability at 10 µM [5] of the same molecule?
Its viability at 10 µM is 77.2%.

What does the source list for `C=CCSc1nsc(NC(=O)Nc2cccc(C(C)=O)c2)n1`?
viability at 1 µM [1]: 105%; viability at 100 µM [2]: 21.6%; IC50 [3]: 0.16 µM; viability at 0.1 µM [4]: 104%; viability at 10 µM [5]: 96.7%; Activity [6]: 7 log10PFU/ml

Which viability at 1 µM [1] does the source give for `O=C(Nc1nc(SCCOc2ccccc2)ns1)Nc1ccc(F)cc1F` here?
Its viability at 1 µM is 102%.

And the viability at 100 µM [2]?
Its viability at 100 µM is 27.3%.

What about the IC50 [3] of the same molecule?
Its IC50 is 4.94 µM.

What about the viability at 0.1 µM [4] of the same molecule?
Its viability at 0.1 µM is 96.2%.

What about the viability at 10 µM [5] of the same molecule?
Its viability at 10 µM is 95.5%.

With `O[C@H]1CC[C@H](Nc2nc(-c3ccccc3)nc3[nH]ccc23)CC1` as the molecule, how does the viability at 1 µM [1] read?
The viability at 1 µM was 111%.

What about the viability at 100 µM [2] of the same molecule?
The viability at 100 µM was 41.7%.

And the IC50 [3]?
The IC50 was 0.0586 µM.

What about the viability at 0.1 µM [4] of the same molecule?
The viability at 0.1 µM was 106%.

What about the viability at 10 µM [5] of the same molecule?
Its viability at 10 µM is 98.5%.

Which viability at 1 µM [1] does the source give for `C#CCSc1nsc(NC(=O)Nc2ccccc2Cl)n1` here?
Its viability at 1 µM is 96.2%.

What about the viability at 100 µM [2] of the same molecule?
The viability at 100 µM was 21.4%.

And the IC50 [3]?
Its IC50 is 1.68 µM.

What about the viability at 0.1 µM [4] of the same molecule?
Its viability at 0.1 µM is 98.1%.

What about the viability at 10 µM [5] of the same molecule?
The viability at 10 µM was 89.9%.

Which viability at 1 µM [1] does the source give for `C=CCSc1nsc(NC(=O)Nc2ccc(Cl)cc2)n1` here?
Its viability at 1 µM is 98.1%.

And the viability at 100 µM [2]?
The viability at 100 µM was 15.1%.

What about the IC50 [3] of the same molecule?
The IC50 was 0.000189 µM.

And the viability at 0.1 µM [4]?
Its viability at 0.1 µM is 100%.

What about the viability at 10 µM [5] of the same molecule?
The viability at 10 µM was 51.2%.

What does the source list for `COc1ccc(C2CNC(=O)NC2)cc1O[C@@H]1C[C@H]2CC[C@H]1C2`?
viability at 1 µM [1]: 104%; viability at 100 µM [2]: 43.3%; IC50 [3]: 0.182 µM; viability at 0.1 µM [4]: 96.6%; viability at 10 µM [5]: 94.3%

With `C=CCSc1nsc(NC(=O)Nc2ccc(F)cc2F)n1` as the molecule, how does the viability at 1 µM [1] read?
Its viability at 1 µM is 100%.

What about the viability at 100 µM [2] of the same molecule?
The viability at 100 µM was 31.3%.

What about the IC50 [3] of the same molecule?
Its IC50 is 4.48 µM.

And the viability at 0.1 µM [4]?
Its viability at 0.1 µM is 100%.

And the viability at 10 µM [5]?
Its viability at 10 µM is 90.2%.

Which results are given for `C#CCSc1nsc(NC(=O)Nc2ccc(Cl)c(C(F)(F)F)c2)n1`?
viability at 1 µM [1]: 97.8%; viability at 100 µM [2]: 18%; IC50 [3]: 0.0269 µM; viability at 0.1 µM [4]: 99.8%; viability at 10 µM [5]: 74.1%

Which viability at 1 µM [1] does the source give for `C=CCSc1nsc(NC(=O)Nc2ccc(Cl)cc2C(F)(F)F)n1` here?
Its viability at 1 µM is 104%.

What about the viability at 100 µM [2] of the same molecule?
Its viability at 100 µM is 43.1%.

What about the IC50 [3] of the same molecule?
Its IC50 is 0.000318 µM.

What about the viability at 0.1 µM [4] of the same molecule?
Its viability at 0.1 µM is 102%.

What about the viability at 10 µM [5] of the same molecule?
Its viability at 10 µM is 95.8%.

For `O=S(=O)(c1c(F)c(F)c(F)c(F)c1F)N1CCN(c2ccccc2)CC1`, which viability at 1 µM [1] is on record?
Its viability at 1 µM is 103%.

And the viability at 100 µM [2]?
The viability at 100 µM was 35%.

What about the IC50 [3] of the same molecule?
The IC50 was 0.00087 µM.

What about the viability at 0.1 µM [4] of the same molecule?
Its viability at 0.1 µM is 93.1%.

What about the viability at 10 µM [5] of the same molecule?
The viability at 10 µM was 77%.

What about the Activity [6] of the same molecule?
Its Activity is 7 log10PFU/ml.

Which viability at 1 µM [1] does the source give for `CCCn1c(=O)[nH]c2nc(-c3ccc(S(=O)(=O)N4CCN(c5ccc(Cl)cc5)CC4)cc3)[nH]c2c1=O` here?
Its viability at 1 µM is 97.4%.

What about the viability at 100 µM [2] of the same molecule?
Its viability at 100 µM is 35.8%.

And the IC50 [3]?
The IC50 was 0.0438 µM.

And the viability at 0.1 µM [4]?
Its viability at 0.1 µM is 97.7%.

And the viability at 10 µM [5]?
The viability at 10 µM was 86.5%.

Which results are given for `COc1ccc([C@@H]2CNC(=O)C2)cc1OC1CCCC1` [(-)-ROLIPRAM]?
viability at 1 µM [1]: 97.1%; viability at 100 µM [2]: 39.1%; IC50 [3]: 0.0776 µM; viability at 0.1 µM [4]: 95.7%; viability at 10 µM [5]: 92.5%

Which viability at 1 µM [1] does the source give for `CCCOc1cc([C@]2(C)CNC(=O)O2)ccc1OC` [DAXALIPRAM] here?
Its viability at 1 µM is 106%.

And the viability at 100 µM [2]?
The viability at 100 µM was 41.8%.

What about the IC50 [3] of the same molecule?
The IC50 was 0.769 µM.

What about the viability at 0.1 µM [4] of the same molecule?
The viability at 0.1 µM was 101%.

And the viability at 10 µM [5]?
The viability at 10 µM was 95.3%.

With `CN1CCCC1=O` [METHYLPYRROLIDONE] as the molecule, how does the viability at 1 µM [1] read?
The viability at 1 µM was 102%.

What about the viability at 100 µM [2] of the same molecule?
Its viability at 100 µM is 39.3%.

What about the viability at 0.1 µM [4] of the same molecule?
Its viability at 0.1 µM is 98.6%.

And the viability at 10 µM [5]?
Its viability at 10 µM is 99.4%.

Which results are given for `COCCOc1ccc(N2CCN(CCn3ncc4c3nc(N)n3nc(-c5ccco5)nc43)CC2)cc1` [PRELADENANT]?
viability at 1 µM [1]: 104%; viability at 100 µM [2]: 27.9%; IC50 [3]: 0.136 µM; viability at 0.1 µM [4]: 109%; viability at 10 µM [5]: 57%; Activity [6]: 7 log10PFU/ml

Which results are given for `COc1ccc(C2CNC(=O)C2)cc1OC1CCCC1` (stereo not drawn) [ROLIPRAM]?
viability at 1 µM [1]: 114%; viability at 100 µM [2]: 43.4%; IC50 [3]: 0.0446 µM; viability at 0.1 µM [4]: 107%; viability at 10 µM [5]: 101%; Activity [6]: 7 log10PFU/ml

What does the source list for `COc1ccc([C@H]2CNC(=O)C2)cc1OC1CCCC1` [S-ROLIPRAM]?
viability at 1 µM [1]: 105%; viability at 100 µM [2]: 40.9%; IC50 [3]: 0.0258 µM; viability at 0.1 µM [4]: 96.5%; viability at 10 µM [5]: 97%

For `Nc1nc(NCCc2ccc(O)cc2)nc2nc(-c3ccco3)nn12` [ZM-241385], which viability at 1 µM [1] is on record?
Its viability at 1 µM is 110%.

And the viability at 100 µM [2]?
The viability at 100 µM was 32.6%.

What about the IC50 [3] of the same molecule?
The IC50 was 1.07 µM.

And the viability at 0.1 µM [4]?
Its viability at 0.1 µM is 107%.

And the viability at 10 µM [5]?
Its viability at 10 µM is 77.8%.
